Source: ChEMBL document CHEMBL3739370, “Synthesis and evaluation of amide, sulfonamide and urea benzisoxazole derivatives as potential atypical antipsychotics” (Medchemcomm, 2015)

Columns and labels:
Type in all cases: tissue-based
[1] = target: T1, 5-hydroxytryptamine receptor 1A (Rattus norvegicus, UniProt P19327); experiment: Displacement of [3H]8-OH-DPAT from 5HT1A receptor in rat brain cortex
T1 sequence (P19327 whole entry): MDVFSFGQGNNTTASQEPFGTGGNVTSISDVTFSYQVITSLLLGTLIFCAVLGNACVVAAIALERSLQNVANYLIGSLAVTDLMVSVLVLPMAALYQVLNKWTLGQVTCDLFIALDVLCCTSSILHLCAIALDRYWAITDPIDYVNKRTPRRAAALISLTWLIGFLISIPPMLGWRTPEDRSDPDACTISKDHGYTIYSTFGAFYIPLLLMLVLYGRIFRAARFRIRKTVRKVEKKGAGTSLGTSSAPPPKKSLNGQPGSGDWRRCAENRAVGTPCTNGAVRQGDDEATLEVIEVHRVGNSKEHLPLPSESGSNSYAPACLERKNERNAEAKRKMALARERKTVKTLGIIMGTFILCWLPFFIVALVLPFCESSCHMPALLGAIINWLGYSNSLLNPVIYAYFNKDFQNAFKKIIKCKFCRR

[2] = target: T2, 5-hydroxytryptamine receptor 2C (Rattus norvegicus, UniProt P08909); experiment: Displacement of [3H]mesulergine from 5HT2C receptor in rat brain cortex
T2 sequence (P08909 whole entry): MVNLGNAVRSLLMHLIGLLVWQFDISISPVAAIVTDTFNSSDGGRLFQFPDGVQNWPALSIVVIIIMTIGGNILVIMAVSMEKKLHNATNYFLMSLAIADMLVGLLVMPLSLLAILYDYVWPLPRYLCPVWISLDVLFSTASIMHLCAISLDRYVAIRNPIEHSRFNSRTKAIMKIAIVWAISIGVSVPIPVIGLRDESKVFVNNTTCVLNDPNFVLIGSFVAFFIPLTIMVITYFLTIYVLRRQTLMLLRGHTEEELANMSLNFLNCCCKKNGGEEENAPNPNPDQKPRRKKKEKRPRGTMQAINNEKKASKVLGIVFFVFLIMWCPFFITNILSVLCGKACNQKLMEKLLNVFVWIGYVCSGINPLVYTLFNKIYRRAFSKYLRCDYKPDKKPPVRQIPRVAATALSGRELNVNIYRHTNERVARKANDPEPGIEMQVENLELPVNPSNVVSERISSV

[3] = target: T3, Adrenergic receptor alpha-1 (Rattus norvegicus, UniProt P15823+P23944+P43140); experiment: Displacement of [3H]prazosin from adrenergic alpha1 receptor in rat brain cortex
T3 sequence (P15823 whole entry): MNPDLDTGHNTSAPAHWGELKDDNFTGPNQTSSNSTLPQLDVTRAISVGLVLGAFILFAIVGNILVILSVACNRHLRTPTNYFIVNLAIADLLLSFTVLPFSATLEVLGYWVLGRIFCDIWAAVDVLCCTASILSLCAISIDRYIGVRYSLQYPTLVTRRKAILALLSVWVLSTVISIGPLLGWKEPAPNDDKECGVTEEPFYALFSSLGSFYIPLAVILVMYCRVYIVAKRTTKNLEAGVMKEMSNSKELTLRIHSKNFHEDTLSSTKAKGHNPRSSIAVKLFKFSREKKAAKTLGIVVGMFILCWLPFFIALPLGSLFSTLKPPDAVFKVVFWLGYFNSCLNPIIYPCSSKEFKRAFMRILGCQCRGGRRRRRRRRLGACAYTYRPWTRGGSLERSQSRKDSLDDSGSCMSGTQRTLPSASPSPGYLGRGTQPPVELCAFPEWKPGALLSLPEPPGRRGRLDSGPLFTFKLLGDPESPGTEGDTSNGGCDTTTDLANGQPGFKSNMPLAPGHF
T3 sequence (P23944 whole entry): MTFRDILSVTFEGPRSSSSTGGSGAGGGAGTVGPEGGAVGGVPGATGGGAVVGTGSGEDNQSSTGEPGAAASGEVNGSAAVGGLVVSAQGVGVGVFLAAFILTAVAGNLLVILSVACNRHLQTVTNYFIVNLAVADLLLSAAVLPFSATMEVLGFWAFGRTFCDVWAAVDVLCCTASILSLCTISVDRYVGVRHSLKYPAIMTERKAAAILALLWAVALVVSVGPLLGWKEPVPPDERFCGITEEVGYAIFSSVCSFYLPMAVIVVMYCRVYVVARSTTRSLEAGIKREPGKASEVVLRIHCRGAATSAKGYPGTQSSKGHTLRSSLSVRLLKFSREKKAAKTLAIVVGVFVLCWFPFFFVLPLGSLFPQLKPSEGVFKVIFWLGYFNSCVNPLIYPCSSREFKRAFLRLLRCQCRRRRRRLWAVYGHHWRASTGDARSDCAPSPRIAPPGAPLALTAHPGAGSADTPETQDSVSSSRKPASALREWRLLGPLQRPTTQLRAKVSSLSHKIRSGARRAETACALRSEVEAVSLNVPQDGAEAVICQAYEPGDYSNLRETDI
T3 sequence (P43140 whole entry): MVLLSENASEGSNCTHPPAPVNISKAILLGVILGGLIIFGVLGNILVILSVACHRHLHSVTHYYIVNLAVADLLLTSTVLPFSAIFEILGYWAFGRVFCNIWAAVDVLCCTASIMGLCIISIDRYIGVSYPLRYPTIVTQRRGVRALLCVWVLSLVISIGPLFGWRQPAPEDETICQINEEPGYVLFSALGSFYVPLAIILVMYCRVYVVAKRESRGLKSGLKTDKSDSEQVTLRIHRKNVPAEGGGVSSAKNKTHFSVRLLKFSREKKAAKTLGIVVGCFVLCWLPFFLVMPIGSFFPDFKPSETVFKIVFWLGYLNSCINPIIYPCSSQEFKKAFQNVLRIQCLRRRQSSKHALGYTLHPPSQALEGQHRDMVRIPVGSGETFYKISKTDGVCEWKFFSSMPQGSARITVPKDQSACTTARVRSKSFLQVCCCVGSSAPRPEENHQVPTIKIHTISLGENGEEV

Row | SMILES | Ki [1] [nM] | Ki [2] [nM] | Ki [3] [nM]
1 | O=[N+]([O-])c1ccc(S(=O)(=O)N2CCC(CN3CCC(c4noc5cc(F)ccc45)CC3)CC2)cc1 | 16.9 | 998 | 2356.2
2 | O=S(=O)(c1ccc(C(F)(F)F)cc1)N1CCC(CN2CCC(c3noc4cc(F)ccc34)CC2)CC1 | 21.9 | 137 | 1098.2
